Results from ChEMBL document CHEMBL1201862, “PubChem BioAssay data set” (2004).
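Interpolation was linear, between the two tested concentrations surrounding the appropriate level; five concentrations were tested over 48 hours in 96-well plates. GI50 = concentration required for 50% inhibition of growth.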 Calls of active or inactive are those of the source. No stated cut-off is given here; in the data, active = GI50 up to about 1.1 µM and inactive = higher.

Assays:
Test in all cases: inhibition of tumour cell growth, NCI panel, 48 h
ACHN = test system: ACHN
EKVX = test system: EKVX
HOP-62 = test system: HOP-62
IGROV-1 = test system: IGROV-1
K562 = test system: K562
M14 = test system: M14
MDA-N = test system: MDA-N
NCI-H522 = test system: NCI-H522
NCI/ADR-RES = test system: NCI/ADR-RES
OVCAR-4 = test system: OVCAR-4
SF-268 = test system: SF-268
SF-295 = test system: SF-295
SK-MEL-28 = test system: SK-MEL-28
SK-MEL-2 = test system: SK-MEL-2
SN12C = test system: SN12C
SNB-75 = test system: SNB-75
TK-10 = test system: TK-10
UO-31 = test system: UO-31
A498 = test system: A498
RXF 393 = test system: RXF 393

Measured: GI50

COc1ccc2[nH]c3c(c2c1)CCc1ccccc1-3
inactive: ACHN > 100 µM | EKVX 17.6 µM | HOP-62 35.2 µM | IGROV-1 19.8 µM | K562 > 100 µM | M14 > 100 µM | MDA-N > 100 µM | NCI-H522 26.7 µM | NCI/ADR-RES 40.4 µM | OVCAR-4 37.6 µM | SF-268 38.7 µM | SF-295 32.8 µM | SK-MEL-28 > 100 µM | SK-MEL-2 > 100 µM | SN12C > 100 µM | SNB-75 26.1 µM | TK-10 > 100 µM | UO-31 70.1 µM

C[n+]1ccc(Nc2ccc(NC(=O)c3ccc(Nc4cc[n+](C)c5ccc([N+](=O)[O-])cc45)cc3[N+](=O)[O-])cc2)cc1
inactive: A498 64 µM | ACHN > 100 µM | EKVX 47.6 µM | HOP-62 47.1 µM | IGROV-1 > 100 µM | K562 20.8 µM | M14 63.4 µM | NCI-H522 13.8 µM | NCI/ADR-RES > 52.4 µM | OVCAR-4 34.5 µM | RXF 393 > 83.8 µM | SF-268 30.9 µM | SF-295 27.8 µM | SK-MEL-28 28.4 µM | SK-MEL-2 50.1 µM | SN12C 48.8 µM | SNB-75 > 60.1 µM | TK-10 > 100 µM | UO-31 47.6 µM

O=c1cc(-c2ccc(O)cc2)oc2cc(O[C@@H]3O[C@H](CO)[C@@H](O)[C@H](O)[C@H]3O)cc(O)c12 [APIGETRIN]
inactive: A498 67.1 µM | ACHN 26.2 µM | EKVX > 100 µM | HOP-62 > 100 µM | IGROV-1 57.9 µM | K562 77.8 µM | M14 > 100 µM | MDA-N 46 µM | NCI-H522 31.1 µM | NCI/ADR-RES 42 µM | OVCAR-4 28.2 µM | SF-268 51.3 µM | SF-295 62.8 µM | SK-MEL-28 98.4 µM | SK-MEL-2 61.5 µM | SN12C > 100 µM | SNB-75 40.8 µM | TK-10 > 100 µM | UO-31 43.2 µM

CNc1ncnc2c1cnn2Cc1cn(COCC(O)CO)nn1 (stereo not drawn)
inactive: A498 > 100 µM | ACHN > 100 µM | EKVX > 100 µM | HOP-62 > 100 µM | IGROV-1 > 100 µM | M14 > 100 µM | MDA-N > 100 µM | NCI/ADR-RES > 100 µM | OVCAR-4 > 100 µM | SF-268 4.97 µM | SF-295 > 100 µM | SK-MEL-28 > 100 µM | SK-MEL-2 > 100 µM | SN12C > 100 µM | TK-10 > 100 µM | UO-31 > 100 µM

Cc1nc2ccc(S(=O)(=O)Nc3ccccc3)cc2c(=O)n1NC(=O)CNc1ccccc1
inactive: ACHN > 100 µM | EKVX > 100 µM | HOP-62 73.5 µM | IGROV-1 67.3 µM | K562 > 100 µM | M14 > 100 µM | MDA-N > 100 µM | NCI-H522 > 100 µM | NCI/ADR-RES > 100 µM | OVCAR-4 > 100 µM | SF-268 > 100 µM | SF-295 > 100 µM | SK-MEL-28 > 100 µM | SK-MEL-2 > 100 µM | SN12C > 100 µM | SNB-75 > 100 µM | TK-10 > 100 µM | UO-31 > 100 µM

O=[N+]([O-])/C(C(Cl)=C(Cl)Cl)=C(\Nc1ccccc1)n1nnc2ccccc21
inactive: A498 > 100 µM | ACHN > 100 µM | EKVX > 100 µM | HOP-62 30.6 µM | K562 > 100 µM | M14 65 µM | MDA-N 54.8 µM | NCI/ADR-RES 41.6 µM | OVCAR-4 17.6 µM | SF-268 19.8 µM | SF-295 44.7 µM | SK-MEL-28 32.7 µM | SK-MEL-2 27.2 µM | SN12C > 100 µM | SNB-75 > 100 µM | UO-31 21.9 µM

COc1ccc2c[n+](C)c3c4cc(OC)c(OC)cc4ccc3c2c1
inactive: A498 45.8 µM | ACHN 64.6 µM | EKVX 13.1 µM | HOP-62 8.02 µM | IGROV-1 4.89 µM | K562 2.43 µM | M14 15.7 µM | NCI-H522 2.03 µM | NCI/ADR-RES > 100 µM | OVCAR-4 8.09 µM | RXF 393 15.6 µM | SF-268 1.79 µM | SF-295 5.13 µM | SK-MEL-28 18.9 µM | SK-MEL-2 10.9 µM | SN12C 2.02 µM | SNB-75 2.47 µM | TK-10 17.8 µM | UO-31 44 µM

COC(=O)c1cc(CC2Cc3cc4c(cc3C2=O)CCC4)cc2c1CCC2 (stereo not drawn)
inactive: A498 > 100 µM | ACHN > 100 µM | EKVX > 100 µM | HOP-62 53.1 µM | IGROV-1 > 100 µM | K562 39.1 µM | M14 52.1 µM | MDA-N 70.6 µM | NCI-H522 54.3 µM | NCI/ADR-RES 81.5 µM | OVCAR-4 33.2 µM | SF-268 > 100 µM | SF-295 35.1 µM | SK-MEL-28 > 100 µM | SK-MEL-2 63.7 µM | SN12C > 100 µM | SNB-75 31.3 µM | TK-10 > 100 µM | UO-31 > 100 µM

N=C(N)NS(=O)(=O)c1ccc(NC(=O)c2c3ccccc3nc3ccccc23)cc1
inactive: A498 > 100 µM | ACHN > 100 µM | EKVX > 100 µM | HOP-62 > 100 µM | IGROV-1 > 100 µM | K562 > 10 µM | M14 > 100 µM | MDA-N > 100 µM | NCI-H522 > 100 µM | NCI/ADR-RES > 100 µM | OVCAR-4 > 100 µM | SF-268 > 100 µM | SF-295 > 100 µM | SK-MEL-28 > 100 µM | SK-MEL-2 > 100 µM | SN12C > 100 µM | SNB-75 > 100 µM | TK-10 > 100 µM | UO-31 > 100 µM

CCSC1=CC2(O)N(CCc3ccc(OC)c(OC)c3)C(=O)CC2(C(=O)OC)CC1=O (stereo not drawn)
inactive: A498 > 100 µM | ACHN 29.9 µM | EKVX 40.1 µM | HOP-62 18.2 µM | IGROV-1 18.2 µM | K562 37.9 µM | M14 25.8 µM | MDA-N 31.3 µM | NCI/ADR-RES 65.9 µM | OVCAR-4 35.8 µM | SF-295 > 100 µM | SK-MEL-28 37.2 µM | SK-MEL-2 21.1 µM | SN12C 19.6 µM | TK-10 19.5 µM | UO-31 18.5 µM

CC(C)(C)OC(=O)NC(C)(C)C(=O)NCCC(=O)O
inactive: A498 > 100 µM | ACHN > 100 µM | EKVX > 100 µM | HOP-62 > 100 µM | IGROV-1 > 100 µM | K562 > 100 µM | M14 > 100 µM | NCI-H522 > 100 µM | NCI/ADR-RES > 100 µM | OVCAR-4 > 100 µM | RXF 393 > 100 µM | SF-268 > 100 µM | SF-295 > 100 µM | SK-MEL-28 > 100 µM | SK-MEL-2 > 100 µM | SN12C > 100 µM | SNB-75 > 100 µM | TK-10 > 100 µM | UO-31 > 100 µM
